Structures are written as SMILES. pKi: −log10 of the molar value.

T1 sequence (P30291 whole entry): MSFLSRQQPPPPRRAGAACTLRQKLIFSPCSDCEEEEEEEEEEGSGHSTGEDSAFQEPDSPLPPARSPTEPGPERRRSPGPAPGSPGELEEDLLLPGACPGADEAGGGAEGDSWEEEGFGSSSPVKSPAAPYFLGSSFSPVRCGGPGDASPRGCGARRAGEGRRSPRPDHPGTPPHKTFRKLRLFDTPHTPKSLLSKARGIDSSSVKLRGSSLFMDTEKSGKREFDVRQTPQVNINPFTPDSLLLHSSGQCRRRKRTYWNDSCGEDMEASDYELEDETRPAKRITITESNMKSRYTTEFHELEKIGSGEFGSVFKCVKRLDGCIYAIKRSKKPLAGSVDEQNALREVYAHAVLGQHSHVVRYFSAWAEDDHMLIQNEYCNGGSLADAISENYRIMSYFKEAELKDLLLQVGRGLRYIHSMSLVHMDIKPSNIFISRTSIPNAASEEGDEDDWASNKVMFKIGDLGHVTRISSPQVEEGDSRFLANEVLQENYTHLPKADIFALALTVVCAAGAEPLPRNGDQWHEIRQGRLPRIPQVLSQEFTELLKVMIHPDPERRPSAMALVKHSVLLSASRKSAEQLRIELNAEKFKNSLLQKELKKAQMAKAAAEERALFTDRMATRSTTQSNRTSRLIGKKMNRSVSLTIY

This experiment has as its target T1, GST-tagged-Wee1 kinase (Homo sapiens, UniProt P30291).
T1 construct: purchased Carnabio (Carna Biosciences) 05-177
The experiment is described as follows: Wee1 time-resolved fluorescence equilibrium binding assay (displacement of Oregon Green-labeled ATP-competitive kinase probe). The settings on record: read-out: Wee-1 inhibition (Ki). In short, it runs like this:
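Ki values derive from competitive displacement, under equilibrium, of a fast-reversible ATP-site Oregon Green kinase probe from GST-tagged Wee1, detected by time-resolved fluorescence.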
For the compound `CC1(C)CNCc2cc(Nc3ncc4c(=O)n(-c5c(F)cccc5Cl)c5nccn5c4n3)ccc21` [Example 159, 6-(2-chloro-6-fluorophenyl)-2-[(4,4-dimethyl-1,2,3,4-tetrahydroisoquinolin-7-yl)amino]imidazo[1,2-a]pyrimido[5,4-e]pyrimidin-5(6H)-one], the pKi is 7.00 to 8.00.
With `CN(C)CCN1CCc2cc(Nc3ncc4c(=O)n(-c5ccccc5Cl)c5nccn5c4n3)ccc21` [Example 93, 6-(2-chlorophenyl)-2-({1-[2-(dimethylamino)ethyl]-2,3-dihydro-1H-indol-5-yl}amino)imidazo[1,2-a]pyrimido[5,4-e]pyrimidin-5(6H)-one], the pKi was over 8.00.
As for `Cc1cc(Nc2ncc3c(=O)n(-c4c(F)cccc4Cl)c4nccn4c3n2)ccc1N1CCCN(C)CC1` [Example 96, 6-(2-chloro-6-fluorophenyl)-2-{[3-methyl-4-(4-methyl-1,4-diazepan-1-yl)phenyl]amino}imidazo[1,2-a]pyrimido[5,4-e]pyrimidin-5(6H)-one], the figure is over 8.00; as for `CC1(C)CN(CCF)Cc2cc(Nc3ncc4c(=O)n(-c5c(F)cccc5Cl)c5nccn5c4n3)ccc21` [Example 281, 6-(2-chloro-6-fluorophenyl)-2-{[2-(2-fluoroethyl)-4,4-dimethyl-1,2,3,4-tetrahydroisoquinolin-7-yl]amino}imidazo[1,2-a]pyrimido[5,4-e]pyrimidin-5(6H)-one], over 8.00; as for `CC(C)C(=O)N1Cc2cc(Nc3ncc4c(=O)n(-c5c(F)cccc5Cl)c5nccn5c4n3)ccc2C2(CC2)C1` [Example 265, 6-(2-chloro-6-fluorophenyl)-2-{[2′-(2-methylpropanoyl)-2′,3′-dihydro-1′H-spiro[cyclopropane-1,4′-isoquinolin]-7′-yl]amino}imidazo[1,2-a]pyrimido[5,4-e]pyrimidin-5(6H)-one], over 8.00.
Consider `CN1CCN(c2ccc(Nc3ncc4c(=O)n(C5CCCCC5)c5nccn5c4n3)cc2)CC1` [Example 24, 6-cyclohexyl-2-{[4-(4-methylpiperazin-1-yl)phenyl]amino}imidazo[1,2-a]pyrimido[5,4-e]pyrimidin-5(6H)-one], for which the pKi was under 7.00.
On to `CCS(=O)(=O)N1Cc2cc(Nc3ncc4c(=O)n(-c5c(Cl)cccc5Cl)c5nccn5c4n3)ccc2C(C)(C)C1` [Example 320, 6-(2,6-dichlorophenyl)-2-{[2-(ethylsulfonyl)-4,4-dimethyl-1,2,3,4-tetrahydroisoquinolin-7-yl]amino}imidazo[1,2-a]pyrimido[5,4-e]pyrimidin-5(6H)-one], for which the pKi was over 8.00.
Regarding `C[C@@H]1CCCN1CCc1ccc(Nc2ncc3c(=O)n(-c4ccccc4Cl)c4nccn4c3n2)cc1` [Example 359, 6-(2-chlorophenyl)-2-[(4-{2-[(2R)-2-methylpyrrolidin-1-yl]ethyl}phenyl)amino]imidazo[1,2-a]pyrimido[5,4-e]pyrimidin-5(6H)-one], the pKi was 7.00 to 8.00.
As for `O=C(C1CC1)N1Cc2cc(Nc3ncc4c(=O)n(-c5c(F)cccc5Cl)c5nccn5c4n3)ccc2C2(CC2)C1` [Example 242, 6-(2-chloro-6-fluorophenyl)-2-{[2′-(cyclopropylcarbonyl)-2′,3′-dihydro-1′H-spiro[cyclopropane-1,4′-isoquinolin]-7′-yl]amino}imidazo[1,2-a]pyrimido[5,4-e]pyrimidin-5(6H)-one], the figure is over 8.00; as for `CC1(C)CN(S(N)(=O)=O)Cc2cc(Nc3ncc4c(=O)n(-c5c(F)cccc5Cl)c5nccn5c4n3)ccc21` [Example 317, 7-{[6-(2-chloro-6-fluorophenyl)-5-oxo-5,6-dihydroimidazo[1,2-a]pyrimido[5,4-e]pyrimidin-2-yl]amino}-4,4-dimethyl-3,4-dihydroisoquinoline-2(1H)-sulfonamide], over 8.00.
As for `CN1CCCN(c2ccc(Nc3ncc4c(=O)n(-c5ccccc5Cl)c5nccn5c4n3)cc2CO)CC1` [Example 100, 6-(2-chlorophenyl)-2-{[3-(hydroxymethyl)-4-(4-methyl-1,4-diazepan-1-yl)phenyl]amino}imidazo[1,2-a]pyrimido[5,4-e]pyrimidin-5(6H)-one], the figure is over 8.00; as for `O=c1c2cnc(Nc3ccc(C4CCNC4)cc3)nc2n2ccnc2n1-c1ccccc1Cl` (centres unmarked) [Example 72, 6-(2-chlorophenyl)-2-{[4-(pyrrolidin-3-yl)phenyl]amino}imidazo[1,2-a]pyrimido[5,4-e]pyrimidin-5(6H)-one], over 8.00; as for `CN1Cc2cc(Nc3ncc4c(=O)n(-c5c(Cl)cccc5Cl)c5nccn5c4n3)ccc2C2(CC2)C1` [Example 73, 6-(2,6-dichlorophenyl)-2-[(2′-methyl-2′,3′-dihydro-1′H-spiro[cyclopropane-1,4′-isoquinolin]-7′-yl)amino]imidazo[1,2-a]pyrimido[5,4-e]pyrimidin-5(6H)-one], over 8.00.
As for `O=c1c2cnc(Nc3ccc(N4CCC(N5CCCCC5)CC4)cc3)nc2n2ccnc2n1-c1ccccc1Cl` [Example 229, 2-{[4-(1,4′-bipiperidin-1′-yl)phenyl]amino}-6-(2-chlorophenyl)imidazo[1,2-a]pyrimido[5,4-e]pyrimidin-5(6H)-one], the figure is over 8.00.
With `Cc1cnc2n(-c3ccccc3Cl)c(=O)c3cnc(Nc4ccc(N5CCN(C)CC5)cc4)nc3n12` [Example 25, 6-(2-chlorophenyl)-9-methyl-2-{[4-(4-methylpiperazin-1-yl)phenyl]amino}imidazo[1,2-a]pyrimido[5,4-e]pyrimidin-5(6H)-one], the negative-log Ki (pKi) is over 8.00.
Then `O=C(Nc1ccc(Nc2ncc3c(=O)n(-c4ccccc4Cl)c4nccn4c3n2)cc1)c1ccncc1` [Example 61, N-(4-{[6-(2-chlorophenyl)-5-oxo-5,6-dihydroimidazo[1,2-a]pyrimido[5,4-e]pyrimidin-2-yl]amino}phenyl)pyridine-4-carboxamide], with over 8.00.
As for `CN(C)CCNc1ccc(Nc2ncc3c(=O)n(-c4c(Cl)cccc4Cl)c4nccn4c3n2)cc1` [Example 284, 6-(2,6-dichlorophenyl)-2-[(4-{[2-(dimethylamino)ethyl]amino}phenyl)amino]imidazo[1,2-a]pyrimido[5,4-e]pyrimidin-5(6H)-one], the figure is over 8.00; as for `CN1CCN(C(=O)c2ccc(Nc3ncc4c(=O)n(-c5ccccc5Cl)c5nccn5c4n3)cc2)CC1` [Example 42, 6-(2-chlorophenyl)-2-({4-[(4-methylpiperazin-1-yl)carbonyl]phenyl}amino)imidazo[1,2-a]pyrimido[5,4-e]pyrimidin-5(6H)-one], 7.00 to 8.00; as for `Cc1cc(Nc2ncc3c(=O)n(-c4c(F)cccc4Cl)c4nccn4c3n2)ccc1N1CCCNCC1` [Example 141, 6-(2-chloro-6-fluorophenyl)-2-{[4-(1,4-diazepan-1-yl)-3-methylphenyl]amino}imidazo[1,2-a]pyrimido[5,4-e]pyrimidin-5(6H)-one], over 8.00.
As for `CN(C)C1Cc2ccc(Nc3ncc4c(=O)n(-c5c(Cl)cccc5Cl)c5nccn5c4n3)cc2C1` (centres unmarked) [Example 114, 6-(2,6-dichlorophenyl)-2-{[2-(dimethylamino)-2,3-dihydro-1H-inden-5-yl]amino}imidazo[1,2-a]pyrimido[5,4-e]pyrimidin-5(6H)-one], the figure is over 8.00; as for `O=c1c2cnc(Nc3ccc(-n4ccnc4)cc3)nc2n2ccnc2n1-c1ccccc1Cl` [Example 80, 6-(2-chlorophenyl)-2-{[4-(1H-imidazol-1-yl)phenyl]amino}imidazo[1,2-a]pyrimido[5,4-e]pyrimidin-5(6H)-one], 7.00 to 8.00.
As to `COc1cc(Nc2ncc3c(=O)n(-c4c(Cl)cccc4Cl)c4nccn4c3n2)ccc1N1CCN(C)CC1` [Example 148, 6-(2,6-dichlorophenyl)-2-{[3-methoxy-4-(4-methylpiperazin-1-yl)phenyl]amino}imidazo[1,2-a]pyrimido[5,4-e]pyrimidin-5(6H)-one], the pKi is over 8.00.
As for `CC1(C)CN(CC2CCCCC2)Cc2cc(Nc3ncc4c(=O)n(-c5ccccc5Cl)c5nccn5c4n3)ccc21` [Example 113, 6-(2-chlorophenyl)-2-{[2-(cyclohexylmethyl)-4,4-dimethyl-1,2,3,4-tetrahydroisoquinolin-7-yl]amino}imidazo[1,2-a]pyrimido[5,4-e]pyrimidin-5(6H)-one], the figure is over 8.00; as for `N#Cc1cccc(CN2CCN(c3ccc(Nc4ncc5c(=O)n(-c6ccccc6Cl)c6nccn6c5n4)cc3)CC2)c1` [Example 31, 3-{[4-(4-{[6-(2-chlorophenyl)-5-oxo-5,6-dihydroimidazo[1,2-a]pyrimido[5,4-e]pyrimidin-2-yl]amino}phenyl)piperazin-1-yl]methyl}benzonitrile], 7.00 to 8.00; as for `CC(C)c1cc(Nc2ncc3c(=O)n(-c4ccccc4Cl)c4nccn4c3n2)ccc1N1CCN(C)CC1` [Example 157, 6-(2-chlorophenyl)-2-{[4-(4-methylpiperazin-1-yl)-3-(propan-2-yl)phenyl]amino}imidazo[1,2-a]pyrimido[5,4-e]pyrimidin-5(6H)-one], over 8.00.
Then `O=c1c2cnc(Nc3cc(F)c(N4CCNCC4)c(F)c3)nc2n2ccnc2n1-c1ccccc1Cl` [Example 203, 6-(2-chlorophenyl)-2-{[3,5-difluoro-4-(piperazin-1-yl)phenyl]amino}imidazo[1,2-a]pyrimido[5,4-e]pyrimidin-5(6H)-one], with over 8.00; and `CCN(CCN(C)C)c1ccc(Nc2ncc3c(=O)n(-c4c(Cl)cccc4Cl)c4nccn4c3n2)cc1` [Example 327, 6-(2,6-dichlorophenyl)-2-[(4-{[2-(dimethylamino)ethyl](ethyl)amino}phenyl)amino]imidazo[1,2-a]pyrimido[5,4-e]pyrimidin-5(6H)-one], with over 8.00; and `O=c1c2cnc(Nc3ccc(N4CC5(CCNCC5)C4)cc3)nc2n2ccnc2n1-c1c(Cl)cccc1Cl` [Example 314, 2-{[4-(2,7-diazaspiro[3.5]non-2-yl)phenyl]amino}-6-(2,6-dichlorophenyl)imidazo[1,2-a]pyrimido[5,4-e]pyrimidin-5(6H)-one], with over 8.00.
As for `O=c1c2cnc(Nc3ccc(N4CCNCC4)nc3)nc2n2ccnc2n1-c1ccccc1Cl` [Example 81, 6-(2-chlorophenyl)-2-{[6-(piperazin-1-yl)pyridin-3-yl]amino}imidazo[1,2-a]pyrimido[5,4-e]pyrimidin-5(6H)-one], the figure is over 8.00.

Usually pKi stands for −log10 of the Ki, conventionally taken in molar units.

The record behind these values is patent US8710065B2, “Tricyclic inhibitors of kinases” (AbbVie Inc., priority 2011, dated 2014).
